Results reported in the kinase profiling compilation of Christmann-Franck et al. (2016).

Tests used:
Test in all cases: KINOMEscan competition binding
Settings in all cases: compound 10.0 µM
ADCK3 (human) = ADCK3 (human) (UniProt Q8NI60)
AKT1 (human) = AKT1 (human) (UniProt P31749)
AKT2 (human) = AKT2 (human) (UniProt P31751)
CDC2L2 (human) = CDC2L2 (human) (UniProt Q9UQ88)
CDK11B (human) = CDK11B (human) (UniProt P21127)
DAPK3 (human) = DAPK3 (human) (UniProt O43293)
EPHB2 (human) = EPHB2 (human) (UniProt P29323)
EPHB3 (human) = EPHB3 (human) (UniProt P54753)
ERBB4 (human) = ERBB4 (human) (UniProt Q15303)
FES (human) = FES (human) (UniProt P07332)
IKBKE (human) = IKBKE (human) (UniProt Q14164)
LIMK2 (human) = LIMK2 (human) (UniProt P53671)
LTK (human) = LTK (human) (UniProt P29376)
MAP2K6 (human) = MAP2K6 (human) (UniProt P52564)
MAP3K3 (human) = MAP3K3 (human) (UniProt Q99759)
MAPK1 (human) = MAPK1 (human) (UniProt P28482)
MAPK11 (human) = MAPK11 (human) (UniProt Q15759)
MAPK15 (human) = MAPK15 (human) (UniProt Q8TD08)
MAPK6 (human) = MAPK6 (human) (UniProt Q16659)
MAPKAPK5 (human) = MAPKAPK5 (human) (UniProt Q8IW41)
MARK3 (human) = MARK3 (human) (UniProt P27448)
NEK7 (human) = NEK7 (human) (UniProt Q8TDX7)
NLK (human) = NLK (human) (UniProt Q9UBE8)
PDPK1 (human) = PDPK1 (human) (UniProt O15530)
PIP4K2B (human) = PIP4K2B (human) (UniProt P78356)
PIP5K1A (human) = PIP5K1A (human) (UniProt Q99755)
PLK3 (human) = PLK3 (human) (UniProt Q9H4B4)
PTK2 (human) = PTK2 (human) (UniProt Q05397)
PTK6 (human) = PTK6 (human) (UniProt Q13882)
RPS6KA4 KD1 (human) = RPS6KA4 KD1 (human) (UniProt O75676)
SGK110 (human) = SGK110 (human) (UniProt P0C264)
STK10 (human) = STK10 (human) (UniProt O94804)
STK16 (human) = STK16 (human) (UniProt O75716)
STK4 (human) = STK4 (human) (UniProt Q13043)
TAOK3 (human) = TAOK3 (human) (UniProt Q9H2K8)
TESK1 (human) = TESK1 (human) (UniProt Q15569)
TGFBR2 (human) = TGFBR2 (human) (UniProt P37173)
TSSK1B (human) = TSSK1B (human) (UniProt Q9BXA7)
DCLK1 (human) = DCLK1 (human) (UniProt O15075)
[1] = test system: KIT (human), P10721 [D816V]

Sequence of MAPK6 (human) (Q16659 whole entry, looked up): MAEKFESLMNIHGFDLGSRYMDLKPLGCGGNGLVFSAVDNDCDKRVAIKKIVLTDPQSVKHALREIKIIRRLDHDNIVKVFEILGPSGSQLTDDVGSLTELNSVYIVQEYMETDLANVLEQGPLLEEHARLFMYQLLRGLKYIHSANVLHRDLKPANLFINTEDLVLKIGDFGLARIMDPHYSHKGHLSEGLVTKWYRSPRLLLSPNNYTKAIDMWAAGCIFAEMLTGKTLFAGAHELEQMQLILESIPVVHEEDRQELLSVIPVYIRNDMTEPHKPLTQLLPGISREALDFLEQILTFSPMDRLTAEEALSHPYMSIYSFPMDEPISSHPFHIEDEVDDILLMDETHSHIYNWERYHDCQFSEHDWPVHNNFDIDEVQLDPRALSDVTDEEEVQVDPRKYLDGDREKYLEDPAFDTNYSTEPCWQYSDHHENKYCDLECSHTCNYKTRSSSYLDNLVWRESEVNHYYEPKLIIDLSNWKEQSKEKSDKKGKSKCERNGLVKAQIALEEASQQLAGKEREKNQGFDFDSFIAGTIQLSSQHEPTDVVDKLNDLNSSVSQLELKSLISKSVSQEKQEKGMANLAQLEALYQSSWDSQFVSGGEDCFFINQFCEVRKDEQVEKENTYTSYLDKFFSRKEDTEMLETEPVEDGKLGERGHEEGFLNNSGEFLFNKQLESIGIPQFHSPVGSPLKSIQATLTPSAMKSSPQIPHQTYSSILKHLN
Sequence of DAPK3 (human) (O43293 whole entry, looked up): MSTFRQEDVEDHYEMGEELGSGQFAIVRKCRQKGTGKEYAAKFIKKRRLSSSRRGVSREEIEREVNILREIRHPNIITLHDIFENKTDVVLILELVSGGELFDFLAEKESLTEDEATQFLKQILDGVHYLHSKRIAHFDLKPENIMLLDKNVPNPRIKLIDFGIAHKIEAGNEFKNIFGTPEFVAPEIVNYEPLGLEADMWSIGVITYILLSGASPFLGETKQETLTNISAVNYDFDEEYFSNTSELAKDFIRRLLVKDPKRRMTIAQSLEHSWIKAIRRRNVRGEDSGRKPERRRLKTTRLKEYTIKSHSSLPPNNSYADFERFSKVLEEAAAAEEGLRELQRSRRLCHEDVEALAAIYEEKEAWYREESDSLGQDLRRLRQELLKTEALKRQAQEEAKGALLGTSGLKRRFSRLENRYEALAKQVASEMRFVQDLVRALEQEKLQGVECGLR
Sequence of MAP2K6 (human) (P52564 whole entry, looked up): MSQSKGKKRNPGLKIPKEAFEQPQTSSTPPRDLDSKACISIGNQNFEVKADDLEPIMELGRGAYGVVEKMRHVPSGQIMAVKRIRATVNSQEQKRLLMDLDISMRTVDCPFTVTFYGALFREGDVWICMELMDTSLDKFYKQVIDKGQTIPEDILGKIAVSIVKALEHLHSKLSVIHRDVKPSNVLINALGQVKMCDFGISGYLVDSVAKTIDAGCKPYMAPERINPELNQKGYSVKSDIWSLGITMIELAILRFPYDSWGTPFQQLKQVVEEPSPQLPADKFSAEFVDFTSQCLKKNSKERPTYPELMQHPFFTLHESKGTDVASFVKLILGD
Sequence of TESK1 (human) (Q15569 whole entry, looked up): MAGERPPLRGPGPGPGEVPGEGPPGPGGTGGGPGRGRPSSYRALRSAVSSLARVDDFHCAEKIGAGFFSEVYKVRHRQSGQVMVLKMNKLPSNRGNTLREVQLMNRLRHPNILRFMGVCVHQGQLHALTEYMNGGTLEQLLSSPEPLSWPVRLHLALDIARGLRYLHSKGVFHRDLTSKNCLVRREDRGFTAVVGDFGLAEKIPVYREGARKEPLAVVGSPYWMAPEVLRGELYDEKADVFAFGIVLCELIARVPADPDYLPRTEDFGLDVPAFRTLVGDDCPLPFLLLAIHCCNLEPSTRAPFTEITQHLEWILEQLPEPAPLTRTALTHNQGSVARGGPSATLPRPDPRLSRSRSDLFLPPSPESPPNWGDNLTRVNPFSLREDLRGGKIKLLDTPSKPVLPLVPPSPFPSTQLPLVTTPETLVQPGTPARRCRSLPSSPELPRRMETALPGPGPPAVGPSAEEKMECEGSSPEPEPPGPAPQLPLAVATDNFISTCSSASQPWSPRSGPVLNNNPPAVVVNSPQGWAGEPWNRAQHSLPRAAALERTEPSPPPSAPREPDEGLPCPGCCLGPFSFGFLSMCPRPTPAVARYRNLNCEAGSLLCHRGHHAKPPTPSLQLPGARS
Sequence of LIMK2 (human) (P53671 whole entry, looked up): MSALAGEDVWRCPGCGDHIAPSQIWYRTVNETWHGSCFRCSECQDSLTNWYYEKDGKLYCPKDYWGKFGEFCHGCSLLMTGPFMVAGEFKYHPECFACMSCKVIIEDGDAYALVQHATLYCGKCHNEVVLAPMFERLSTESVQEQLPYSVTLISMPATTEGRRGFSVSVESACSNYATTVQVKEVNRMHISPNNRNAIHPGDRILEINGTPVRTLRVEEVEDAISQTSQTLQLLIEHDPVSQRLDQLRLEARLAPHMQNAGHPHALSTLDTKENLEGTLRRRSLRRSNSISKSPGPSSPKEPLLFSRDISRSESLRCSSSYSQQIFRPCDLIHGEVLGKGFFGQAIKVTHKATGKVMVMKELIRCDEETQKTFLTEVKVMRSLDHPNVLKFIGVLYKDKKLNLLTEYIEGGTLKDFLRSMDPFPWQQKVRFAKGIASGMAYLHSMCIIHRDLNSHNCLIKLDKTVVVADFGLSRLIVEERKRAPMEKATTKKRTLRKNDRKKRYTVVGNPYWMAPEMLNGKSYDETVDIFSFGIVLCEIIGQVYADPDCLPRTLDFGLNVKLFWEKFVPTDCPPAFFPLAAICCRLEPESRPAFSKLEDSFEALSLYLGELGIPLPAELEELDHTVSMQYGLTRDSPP
Sequence of MARK3 (human) (P27448 whole entry, looked up): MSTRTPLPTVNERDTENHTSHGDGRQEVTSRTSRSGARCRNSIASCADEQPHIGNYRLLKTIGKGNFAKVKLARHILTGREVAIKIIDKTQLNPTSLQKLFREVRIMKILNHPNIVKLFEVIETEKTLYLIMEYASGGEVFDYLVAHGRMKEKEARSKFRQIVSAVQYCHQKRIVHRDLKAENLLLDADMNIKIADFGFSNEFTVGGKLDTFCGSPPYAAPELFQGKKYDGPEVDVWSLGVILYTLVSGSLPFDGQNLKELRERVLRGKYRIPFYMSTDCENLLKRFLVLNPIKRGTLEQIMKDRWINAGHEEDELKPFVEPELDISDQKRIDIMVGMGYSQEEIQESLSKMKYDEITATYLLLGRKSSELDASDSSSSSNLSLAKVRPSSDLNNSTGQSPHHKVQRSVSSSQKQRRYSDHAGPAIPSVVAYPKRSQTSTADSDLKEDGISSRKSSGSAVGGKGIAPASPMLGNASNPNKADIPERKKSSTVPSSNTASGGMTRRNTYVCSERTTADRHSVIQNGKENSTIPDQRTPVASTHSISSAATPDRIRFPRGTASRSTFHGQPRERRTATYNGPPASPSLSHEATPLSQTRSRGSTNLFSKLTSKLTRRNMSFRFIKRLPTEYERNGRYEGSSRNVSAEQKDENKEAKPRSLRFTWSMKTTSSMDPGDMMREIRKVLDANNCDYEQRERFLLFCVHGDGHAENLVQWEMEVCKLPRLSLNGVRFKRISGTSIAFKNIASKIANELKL
Sequence of AKT2 (human) (P31751 whole entry, looked up): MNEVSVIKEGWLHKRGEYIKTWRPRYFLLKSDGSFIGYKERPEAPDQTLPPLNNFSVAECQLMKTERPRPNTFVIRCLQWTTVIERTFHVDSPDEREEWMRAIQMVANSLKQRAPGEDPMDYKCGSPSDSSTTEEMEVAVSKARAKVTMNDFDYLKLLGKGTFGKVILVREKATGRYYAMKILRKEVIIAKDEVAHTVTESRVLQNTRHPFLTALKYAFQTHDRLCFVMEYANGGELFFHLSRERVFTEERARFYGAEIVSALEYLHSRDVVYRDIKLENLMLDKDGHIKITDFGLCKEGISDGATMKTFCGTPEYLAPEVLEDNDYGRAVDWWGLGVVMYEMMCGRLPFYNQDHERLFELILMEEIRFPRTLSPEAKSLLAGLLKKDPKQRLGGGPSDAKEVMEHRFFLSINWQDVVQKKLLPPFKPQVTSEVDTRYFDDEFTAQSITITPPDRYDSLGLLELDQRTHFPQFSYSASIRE
Sequence of PDPK1 (human) (O15530 whole entry, looked up): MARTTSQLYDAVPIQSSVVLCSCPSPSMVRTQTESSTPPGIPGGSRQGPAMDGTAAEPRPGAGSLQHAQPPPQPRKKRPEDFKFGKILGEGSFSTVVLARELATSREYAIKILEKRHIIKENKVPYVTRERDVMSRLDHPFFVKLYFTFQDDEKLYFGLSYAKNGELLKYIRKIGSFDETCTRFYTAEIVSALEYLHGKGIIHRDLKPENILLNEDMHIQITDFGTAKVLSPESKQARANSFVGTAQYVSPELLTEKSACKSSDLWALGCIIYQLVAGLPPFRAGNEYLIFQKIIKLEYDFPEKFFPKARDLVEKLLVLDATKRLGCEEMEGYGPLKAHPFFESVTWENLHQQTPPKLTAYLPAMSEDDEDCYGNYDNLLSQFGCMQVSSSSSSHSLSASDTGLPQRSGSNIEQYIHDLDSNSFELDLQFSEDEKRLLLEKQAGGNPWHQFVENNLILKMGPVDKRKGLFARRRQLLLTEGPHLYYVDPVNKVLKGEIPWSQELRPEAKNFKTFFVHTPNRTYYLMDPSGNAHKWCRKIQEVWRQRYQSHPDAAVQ
Sequence of MAPK11 (human) (Q15759 whole entry, looked up): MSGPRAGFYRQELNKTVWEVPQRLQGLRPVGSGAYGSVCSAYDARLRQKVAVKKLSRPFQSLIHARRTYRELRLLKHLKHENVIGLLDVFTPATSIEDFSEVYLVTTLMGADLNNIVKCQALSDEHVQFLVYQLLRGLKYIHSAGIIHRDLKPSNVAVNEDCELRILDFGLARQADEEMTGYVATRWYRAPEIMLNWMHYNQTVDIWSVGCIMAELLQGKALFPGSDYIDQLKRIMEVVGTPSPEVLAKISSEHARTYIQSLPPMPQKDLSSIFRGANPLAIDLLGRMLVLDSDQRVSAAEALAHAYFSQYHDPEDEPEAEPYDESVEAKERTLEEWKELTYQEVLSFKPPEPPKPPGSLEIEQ

SMILES	kinase still bound, per cent of control (ADCK3 (human)) [%]	kinase still bound, per cent of control (AKT1 (human)) [%]	kinase still bound, per cent of control (AKT2 (human)) [%]	kinase still bound, per cent of control (CDC2L2 (human)) [%]	kinase still bound, per cent of control (CDK11B (human)) [%]	kinase still bound, per cent of control (DAPK3 (human)) [%]	kinase still bound, per cent of control (EPHB2 (human)) [%]	kinase still bound, per cent of control (EPHB3 (human)) [%]	kinase still bound, per cent of control (FES (human)) [%]	kinase still bound, per cent of control (IKBKE (human)) [%]	kinase still bound, per cent of control (LIMK2 (human)) [%]	kinase still bound, per cent of control (LTK (human)) [%]	kinase still bound, per cent of control (MAP2K6 (human)) [%]	kinase still bound, per cent of control (MAP3K3 (human)) [%]	kinase still bound, per cent of control (MAPK1 (human)) [%]	kinase still bound, per cent of control (MAPK11 (human)) [%]	kinase still bound, per cent of control (MAPK15 (human)) [%]	kinase still bound, per cent of control (MAPK6 (human)) [%]	kinase still bound, per cent of control (MAPKAPK5 (human)) [%]	kinase still bound, per cent of control (MARK3 (human)) [%]	further results
O=C(O)c1ccc(Nc2ncc3c(n2)-c2ccc(Cl)cc2C(c2c(F)cccc2F)=NC3)cc1	88	100	100	100	89	70	50	29	100	68	94	62	72	72	100	99	90	92	100	100	kinase still bound, per cent of control (ERBB4 (human)): 52%; kinase still bound, per cent of control (NEK7 (human)): 100%; kinase still bound, per cent of control (NLK (human)): 82%; kinase still bound, per cent of control (PDPK1 (human)): 35%; kinase still bound, per cent of control (PIP4K2B (human)): 100%; kinase still bound, per cent of control (PIP5K1A (human)): 100%; kinase still bound, per cent of control (PLK3 (human)): 18%; kinase still bound, per cent of control (PTK2 (human)): 23%; kinase still bound, per cent of control (PTK6 (human)): 77%; kinase still bound, per cent of control (RPS6KA4 KD1 (human)): 100%; kinase still bound, per cent of control (SGK110 (human)): 58%; kinase still bound, per cent of control (STK10 (human)): 6.7%; kinase still bound, per cent of control (STK16 (human)): 30%; kinase still bound, per cent of control (STK4 (human)): 85%; kinase still bound, per cent of control (TAOK3 (human)): 95%; kinase still bound, per cent of control (TESK1 (human)): 100%; kinase still bound, per cent of control (TGFBR2 (human)): 58%; kinase still bound, per cent of control (TSSK1B (human)): 90%
CCCS(=O)(=O)Nc1ccc(F)c(C(=O)c2c[nH]c3ncc(-c4ccc(Cl)cc4)cc23)c1F	100	100	76	91	100	95	99	100	41	100	24	100	57	82	100	29	89	100	100	61	kinase still bound, per cent of control (DCLK1 (human)): 88%; kinase still bound, per cent of control [1]: 52%; kinase still bound, per cent of control (NEK7 (human)): 100%; kinase still bound, per cent of control (NLK (human)): 81%; kinase still bound, per cent of control (PDPK1 (human)): 70%; kinase still bound, per cent of control (PIP4K2B (human)): 100%; kinase still bound, per cent of control (PIP5K1A (human)): 100%; kinase still bound, per cent of control (PLK3 (human)): 93%; kinase still bound, per cent of control (PTK2 (human)): 63%; kinase still bound, per cent of control (PTK6 (human)): 0.75%; kinase still bound, per cent of control (RPS6KA4 KD1 (human)): 90%; kinase still bound, per cent of control (SGK110 (human)): 100%; kinase still bound, per cent of control (STK10 (human)): 16%; kinase still bound, per cent of control (STK16 (human)): 84%; kinase still bound, per cent of control (STK4 (human)): 11%; kinase still bound, per cent of control (TAOK3 (human)): 74%; kinase still bound, per cent of control (TESK1 (human)): 29%; kinase still bound, per cent of control (TGFBR2 (human)): 2.5%; kinase still bound, per cent of control (TSSK1B (human)): 99%
